This is an account of results in the supplement of paper PMC7661543.

What all share (assay): relative cell number vs DMSO control (72 h) (% of DMSO); higher = less growth inhibition (more cells)
Holding throughout (settings): sgRNA knockout: sgNT

One test relates to BT-20. Here is the method: (§1)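 QMAP-Seq: a pool of 5 breast cancer cell lines (ZR-75-1, SKBR3, HCC-38, MDA-MB-231, BT-20), each carrying 12 doxycycline-inducible Cas9 sgRNA perturbations (11 knockouts plus non-targeting sgNT), was treated with compounds for 72 h at four 10-fold doses (10 nM-10 uM or 1 nM-1 uM range). Barcodes were amplified and sequenced, and cell number was interpolated from 293T spike-in standard curves. The result is expressed as % of the median of DMSO wells. Two biological replicates.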

The next test has as its system HCC-38. As to the method:
as §1

The subject of the next test is MDA-MB-231. As to the method:
as §1

The next test relates to SKBR3. As to the method: as §1
In another test the test system is ZR-75-1. As to the method: as §1

± gives the standard deviation of the averaged measurements.

`C=C1C[C@@H]2[C@H](CC[C@]3(C)C(=O)CC[C@@H]23)[C@@]2(C)C=CC(=O)C=C12` [Exemestane]: the relative cell number was found to be 99.8 ± 6 with BT-20 (10 nM); 89.5 ± 1.1 in the test with BT-20 (100 nM); 103 ± 5.9 with BT-20 (1000 nM); 95.4 ± 9.2 in the test on BT-20 (10000 nM); 108 ± 28 in the test on HCC-38 (10 nM); 92 ± 12 in the test on HCC-38 (100 nM). For the same molecule, the relative cell number is 113 ± 3.1 with HCC-38 (1000 nM); 109 ± 25 in the test with HCC-38 (10000 nM); 89.3 ± 13 in the test with MDA-MB-231 (10 nM); 88.2 ± 22 in the test with MDA-MB-231 (100 nM); 80.5 ± 6 in the test on MDA-MB-231 (1000 nM); 69.8 ± 21 in the test with MDA-MB-231 (10000 nM). Also, the relative cell number is 108 ± 22 with SKBR3 (10 nM); 93.4 ± 18 in the test with SKBR3 (100 nM); 115 ± 9.4 with SKBR3 (1000 nM); 102 ± 12 in the test with SKBR3 (10000 nM); 123 ± 22 in the test with ZR-75-1 (10 nM); 82.5 ± 26 in the test on ZR-75-1 (100 nM). For the same molecule, the values for the relative cell number in the test on ZR-75-1 (1000 nM) and in the test with ZR-75-1 (10000 nM) were 104 ± 67 and 99 ± 4.8, respectively.

In the case of `CC(C)n1c(/C=C/C(O)CC(O)CC(=O)O)c(-c2ccc(F)cc2)c2ccccc21` (stereo not given) [Fluvastatin], the relative cell number in the test with BT-20 (10 nM) worked out at 67.8 ± 3.3; with BT-20 (100 nM), 95 ± 7; with BT-20 (1000 nM), 97.3 ± 4.6; in the test on BT-20 (10000 nM), 72.2 ± 16; in the test on HCC-38 (10 nM), 110 ± 7.6; with HCC-38 (100 nM) it was 102 ± 6.7. Also, the relative cell number in the test with HCC-38 (1000 nM) is 96.6 ± 11; with HCC-38 (10000 nM) it was 65.4 ± 2.2; with MDA-MB-231 (10 nM) it was 108 ± 46; in the test with MDA-MB-231 (100 nM), 92.1 ± 46; in the test on MDA-MB-231 (1000 nM) it was 30.8 ± 7.9; in the test on MDA-MB-231 (10000 nM), 10.6 ± 3.6. The relative cell number was 64.9 ± 4 in the test on SKBR3 (10 nM); 87.3 ± 1.6 in the test with SKBR3 (100 nM); 82.5 ± 41 with SKBR3 (1000 nM); 51 ± 34 with SKBR3 (10000 nM); 78.2 ± 28 with ZR-75-1 (10 nM); 83.5 ± 20 in the test with ZR-75-1 (100 nM). The relative cell number with ZR-75-1 (1000 nM) came out at 62.6 ± 22; with ZR-75-1 (10000 nM) it was 78.7 ± 1.4.

Turning to `C[C@]12CC[C@@H]3c4ccc(O)cc4C[C@@H](CCCCCCCCC[S+]([O-])CCCC(F)(F)C(F)(F)F)[C@H]3[C@@H]1CC[C@@H]2O` (stereo not given in full) [Fulvestrant], the relative cell number was 95.9 ± 6.4 in the test on BT-20 (10 nM); 79.5 ± 6.8 in the test on BT-20 (100 nM); 86.6 ± 16 in the test with BT-20 (1000 nM); 110 ± 24 in the test with BT-20 (10000 nM); 83.8 ± 12 in the test on HCC-38 (10 nM); 102 ± 2 with HCC-38 (100 nM). Further, the relative cell number was found to be 103 ± 6.4 with HCC-38 (1000 nM); 94.5 ± 1.7 in the test on HCC-38 (10000 nM); 83.6 ± 3.7 in the test on MDA-MB-231 (10 nM); 93.5 ± 22 in the test on MDA-MB-231 (100 nM); 89.8 ± 4 with MDA-MB-231 (1000 nM); 92 ± 12 in the test on MDA-MB-231 (10000 nM). Moreover, the relative cell number in the test with SKBR3 (10 nM) came to 90.75 ± 0.73; in the test with SKBR3 (100 nM), 48.8 ± 3.3; in the test with SKBR3 (1000 nM), 65.8 ± 26; in the test on SKBR3 (10000 nM) it was 65.9 ± 19; in the test with ZR-75-1 (10 nM) it was 66.3 ± 28; with ZR-75-1 (100 nM) it was 41.9 ± 3.1. Further, the relative cell number with ZR-75-1 (1000 nM) amounted to 73.3 ± 26; in the test with ZR-75-1 (10000 nM) it was 84 ± 39.

Turning to `OCCn1cc(-c2ccc3c(c2)CC/C3=N\O)c(-c2ccncc2)n1` [GDC0879], the relative cell number in the test with BT-20 (10 nM) is 103 ± 17; with BT-20 (100 nM), 112 ± 4.5; with BT-20 (1000 nM) it was 130 ± 8; with BT-20 (10000 nM), 110 ± 1.5; with HCC-38 (10 nM), 104 ± 17; in the test on HCC-38 (100 nM), 124 ± 10. Besides, the relative cell number with HCC-38 (1000 nM) stood at 134 ± 12; with HCC-38 (10000 nM) it was 107 ± 4.3; with MDA-MB-231 (10 nM) it was 114 ± 15; with MDA-MB-231 (100 nM), 92 ± 2.5; in the test on MDA-MB-231 (1000 nM), 106 ± 4.8; in the test with MDA-MB-231 (10000 nM) it was 105 ± 5.9. The relative cell number came out at 114 ± 27 with SKBR3 (10 nM); 151 ± 3.4 in the test with SKBR3 (100 nM); 81.8 ± 29 in the test with SKBR3 (1000 nM); 110 ± 11 in the test with SKBR3 (10000 nM); 128.7 ± 1.1 in the test on ZR-75-1 (10 nM); 137 ± 11 with ZR-75-1 (100 nM). In addition, the relative cell number in the test with ZR-75-1 (1000 nM) was determined as 131 ± 12; in the test with ZR-75-1 (10000 nM) it was 122 ± 81.

In the case of `CS(=O)(=O)N1CCN(Cc2cc3nc(-c4cccc5[nH]ncc45)nc(N4CCOCC4)c3s2)CC1` [GDC0941], the relative cell number was 106 ± 16 with BT-20 (10 nM); 82.9 ± 45 in the test on BT-20 (100 nM); 59.6 ± 12 with BT-20 (1000 nM); 55.9 ± 24 with BT-20 (10000 nM); 94.3 ± 5.9 with HCC-38 (10 nM); 95 ± 5.9 in the test with HCC-38 (100 nM). For the same molecule, the relative cell number was 79.2 ± 12 in the test with HCC-38 (1000 nM); 33.5 ± 0.44 in the test on HCC-38 (10000 nM); 126 ± 30 in the test with MDA-MB-231 (10 nM); 84 ± 21 in the test with MDA-MB-231 (100 nM); 66.3 ± 8.2 in the test with MDA-MB-231 (1000 nM); 44.3 ± 12 with MDA-MB-231 (10000 nM). Also, the relative cell number is 96.1 ± 17 in the test with SKBR3 (10 nM); 67.8 ± 33 in the test on SKBR3 (100 nM); 38.6 ± 4.8 with SKBR3 (1000 nM); 35.6 ± 8.4 with SKBR3 (10000 nM); 94.4 ± 15 in the test on ZR-75-1 (10 nM); 62.4 ± 20 in the test on ZR-75-1 (100 nM). Further, the results for the relative cell number in the test with ZR-75-1 (1000 nM) and in the test on ZR-75-1 (10000 nM) were 52.5 ± 23 and 26.1 ± 8.7, respectively.

For `CC(C)(C)OC(=O)CN(Cc1ccc(Cl)cc1)Cc1ccc([N+](=O)[O-])s1` [GSK4112], the relative cell number in the test with BT-20 (10 nM) came out at 73.6 ± 2; in the test on BT-20 (100 nM) it was 111 ± 14; in the test with BT-20 (1000 nM), 94 ± 20; in the test with BT-20 (10000 nM), 104 ± 3.4; in the test on HCC-38 (10 nM), 78.9 ± 4.7; in the test on HCC-38 (100 nM) it was 95.1 ± 11. Besides, the relative cell number was determined as 95.8 ± 10 in the test with HCC-38 (1000 nM); 96.5 ± 11 with HCC-38 (10000 nM); 82.6 ± 9.2 in the test on MDA-MB-231 (10 nM); 96.4 ± 7.3 with MDA-MB-231 (100 nM); 82.9 ± 9.5 in the test with MDA-MB-231 (1000 nM); 114 ± 40 with MDA-MB-231 (10000 nM). Moreover, the relative cell number with SKBR3 (10 nM) came to 87.6 ± 3.9; in the test on SKBR3 (100 nM), 89 ± 20; in the test on SKBR3 (1000 nM), 66.5 ± 15; in the test with SKBR3 (10000 nM), 117 ± 11; in the test on ZR-75-1 (10 nM) it was 100 ± 4.8; with ZR-75-1 (100 nM) it was 148 ± 35. For the same molecule, the relative cell number in the test on ZR-75-1 (1000 nM) turned out to be 86.4 ± 8.4; in the test with ZR-75-1 (10000 nM), 100 ± 29.
